{"source": "ChEMBL document CHEMBL3885881", "about": "“DrugMatrix”", "species": "Rattus norvegicus", "assay": "DrugMatrix - Regimen: Daily Repeat", "type": "toxicity, organism-based, Sprague-Dawley", "design": "regimen Daily Repeat, gender Male, age 6-8 weeks", "conditions": "in vivo, po, 47 mg/kg, route oral GAVAGE, dose level Low, […]; for ABSOLUTE BASOPHIL / ABSOLUTE EOSINOPHIL / ABSOLUTE LYMPHOCYTE / ABSOLUTE MONOCYTE / ABSOLUTE SEGMENTED NEUTROPHIL / BASOPHIL / EOSINOPHIL / ERYTHROCYTE COUNT / HEMATOCRIT / HEMOGLOBIN / LEUKOCYTE COUNT / LYMPHOCYTE / MEAN CORPUSCULAR HEMOGLOBIN / MEAN CORPUSCULAR HEMOGLOBIN CONCENTRATION / MEAN CORPUSCULAR VOLUME / MONOCYTE / NEUTROPHIL / NUCLEATED RED BLOOD CELLS / PLATELET COUNT: tissue Blood; for ALANINE AMINOTRANSFERASE / ALBUMIN / ALKALINE PHOSPHATASE / ASPARTATE AMINOTRANSFERASE / BLOOD UREA NITROGEN / CARBON DIOXIDE / CHLORIDE / CHOLESTEROL / CREATINE PHOSPHOKINASE / CREATININE / GLUCOSE / LACTATE DEHYDROGENASE / LIPASE / PHOSPHORUS / POTASSIUM / SODIUM / TOTAL BILIRUBIN / TOTAL PROTEIN / URIC ACID: tissue Plasma"}
{"smiles": "Cc1cn([C@H]2C[C@H](N=[N+]=[N-])[C@@H](CO)O2)c(=O)[nH]c1=O", "note": "[ZIDOVUDINE]", "values": [{"measurement": "ABSOLUTE BASOPHIL", "setting": "72 h, time 3 day", "result": 0, "unit": "CELLS/uL"}, {"measurement": "ABSOLUTE EOSINOPHIL", "setting": "72 h, time 3 day", "result": 0, "unit": "CELLS/uL"}, {"measurement": "ABSOLUTE LYMPHOCYTE", "setting": "72 h, time 3 day", "result": 11829.67, "unit": "CELLS/uL"}, {"measurement": "ABSOLUTE MONOCYTE", "setting": "72 h, time 3 day", "result": 82, "unit": "CELLS/uL"}, {"measurement": "ABSOLUTE SEGMENTED NEUTROPHIL", "setting": "72 h, time 3 day", "result": 955, "unit": "CELLS/uL"}, {"measurement": "BASOPHIL", "setting": "72 h, time 3 day", "result": 0, "unit": "%"}, {"measurement": "EOSINOPHIL", "setting": "72 h, time 3 day", "result": 0, "unit": "%"}, {"measurement": "ERYTHROCYTE COUNT", "setting": "72 h, time 3 day", "result": 5.26, "unit": "x10E6/uL"}, {"measurement": "HEMATOCRIT", "setting": "72 h, time 3 day", "result": 33.23, "unit": "%"}, {"measurement": "HEMOGLOBIN", "setting": "72 h, time 3 day", "result": 13.43, "unit": "G/DL"}, {"measurement": "LEUKOCYTE COUNT", "setting": "72 h, time 3 day", "result": 12.87, "unit": "x10E3/uL"}, {"measurement": "LYMPHOCYTE", "setting": "72 h, time 3 day", "result": 92, "unit": "%"}, {"measurement": "MEAN CORPUSCULAR HEMOGLOBIN", "setting": "72 h, time 3 day", "result": 25.67, "unit": "pg"}, {"measurement": "MEAN CORPUSCULAR HEMOGLOBIN CONCENTRATION", "setting": "72 h, time 3 day", "result": 40.47, "unit": "G/DL"}, {"measurement": "MEAN CORPUSCULAR VOLUME", "setting": "72 h, time 3 day", "result": 63.37, "unit": "fL"}, {"measurement": "MONOCYTE", "setting": "72 h, time 3 day", "result": 0.67, "unit": "%"}, {"measurement": "NEUTROPHIL", "setting": "72 h, time 3 day", "result": 7.33, "unit": "%"}, {"measurement": "NUCLEATED RED BLOOD CELLS", "setting": "72 h, time 3 day", "result": "0 /100WBC"}, {"measurement": "PLATELET COUNT", "setting": "72 h, time 3 day", "result": 1228, "unit": "x10E3/uL"}, {"measurement": "ALANINE AMINOTRANSFERASE", "setting": "72 h, time 3 day", "result": 73.67, "unit": "u/L"}, {"measurement": "ALBUMIN", "setting": "72 h, time 3 day", "result": 4.1, "unit": "G/DL"}, {"measurement": "ALKALINE PHOSPHATASE", "setting": "72 h, time 3 day", "result": 470, "unit": "u/L"}, {"measurement": "ASPARTATE AMINOTRANSFERASE", "setting": "72 h, time 3 day", "result": 86, "unit": "u/L"}, {"measurement": "BLOOD UREA NITROGEN", "setting": "72 h, time 3 day", "result": 12, "unit": "mg/dL"}, {"measurement": "CARBON DIOXIDE", "setting": "72 h, time 3 day", "result": 32.67, "unit": "mmol/L"}, {"measurement": "CHLORIDE", "setting": "72 h, time 3 day", "result": 102.33, "unit": "MEQ/L"}, {"measurement": "CHOLESTEROL", "setting": "72 h, time 3 day", "result": 68, "unit": "mg/dL"}, {"measurement": "CREATINE PHOSPHOKINASE", "setting": "72 h, time 3 day", "result": 377, "unit": "u/L"}, {"measurement": "CREATININE", "setting": "72 h, time 3 day", "result": 0.14, "unit": "mg/dL"}, {"measurement": "GLUCOSE", "setting": "72 h, time 3 day", "result": 156.33, "unit": "mg/dL"}, {"measurement": "LACTATE DEHYDROGENASE", "setting": "72 h, time 3 day", "result": 235.67, "unit": "u/L"}, {"measurement": "LIPASE", "setting": "72 h, time 3 day", "result": 11.67, "unit": "u/L"}, {"measurement": "PHOSPHORUS", "setting": "72 h, time 3 day", "result": 10.87, "unit": "mg/dL"}, {"measurement": "POTASSIUM", "setting": "72 h, time 3 day", "result": 6.46, "unit": "MEQ/L"}, {"measurement": "SODIUM", "setting": "72 h, time 3 day", "result": 141.6, "unit": "MEQ/L"}, {"measurement": "TOTAL BILIRUBIN", "setting": "72 h, time 3 day", "result": 0.17, "unit": "mg/dL"}, {"measurement": "TOTAL PROTEIN", "setting": "72 h, time 3 day", "result": 5.57, "unit": "G/DL"}, {"measurement": "URIC ACID", "setting": "72 h, time 3 day", "result": 1.57, "unit": "mg/dL"}, {"measurement": "ABSOLUTE BASOPHIL", "setting": "120 h, time 5 day", "result": 0, "unit": "CELLS/uL"}, {"measurement": "ABSOLUTE EOSINOPHIL", "setting": "120 h, time 5 day", "result": 0, "unit": "CELLS/uL"}, {"measurement": "ABSOLUTE LYMPHOCYTE", "setting": "120 h, time 5 day", "result": 15346, "unit": "CELLS/uL"}, {"measurement": "ABSOLUTE MONOCYTE", "setting": "120 h, time 5 day", "result": 401.67, "unit": "CELLS/uL"}, {"measurement": "ABSOLUTE SEGMENTED NEUTROPHIL", "setting": "120 h, time 5 day", "result": 2019, "unit": "CELLS/uL"}, {"measurement": "BASOPHIL", "setting": "120 h, time 5 day", "result": 0, "unit": "%"}, {"measurement": "EOSINOPHIL", "setting": "120 h, time 5 day", "result": 0, "unit": "%"}, {"measurement": "ERYTHROCYTE COUNT", "setting": "120 h, time 5 day", "result": 5.55, "unit": "x10E6/uL"}, {"measurement": "HEMATOCRIT", "setting": "120 h, time 5 day", "result": 35.13, "unit": "%"}, {"measurement": "HEMOGLOBIN", "setting": "120 h, time 5 day", "result": 14.03, "unit": "G/DL"}, {"measurement": "LEUKOCYTE COUNT", "setting": "120 h, time 5 day", "result": 17.77, "unit": "x10E3/uL"}, {"measurement": "LYMPHOCYTE", "setting": "120 h, time 5 day", "result": 86, "unit": "%"}, {"measurement": "MEAN CORPUSCULAR HEMOGLOBIN", "setting": "120 h, time 5 day", "result": 25.3, "unit": "pg"}, {"measurement": "MEAN CORPUSCULAR HEMOGLOBIN CONCENTRATION", "setting": "120 h, time 5 day", "result": 39.97, "unit": "G/DL"}, {"measurement": "MEAN CORPUSCULAR VOLUME", "setting": "120 h, time 5 day", "result": 63.37, "unit": "fL"}, {"measurement": "MONOCYTE", "setting": "120 h, time 5 day", "result": 2.33, "unit": "%"}, {"measurement": "NEUTROPHIL", "setting": "120 h, time 5 day", "result": 11.67, "unit": "%"}, {"measurement": "NUCLEATED RED BLOOD CELLS", "setting": "120 h, time 5 day", "result": "0 /100WBC"}, {"measurement": "PLATELET COUNT", "setting": "120 h, time 5 day", "result": 1138.33, "unit": "x10E3/uL"}, {"measurement": "ALANINE AMINOTRANSFERASE", "setting": "120 h, time 5 day", "result": 62, "unit": "u/L"}, {"measurement": "ALBUMIN", "setting": "120 h, time 5 day", "result": 4.3, "unit": "G/DL"}, {"measurement": "ALKALINE PHOSPHATASE", "setting": "120 h, time 5 day", "result": 450.33, "unit": "u/L"}, {"measurement": "ASPARTATE AMINOTRANSFERASE", "setting": "120 h, time 5 day", "result": 81.67, "unit": "u/L"}, {"measurement": "BLOOD UREA NITROGEN", "setting": "120 h, time 5 day", "result": 12.33, "unit": "mg/dL"}, {"measurement": "CARBON DIOXIDE", "setting": "120 h, time 5 day", "result": 30.67, "unit": "mmol/L"}, {"measurement": "CHLORIDE", "setting": "120 h, time 5 day", "result": 101, "unit": "MEQ/L"}, {"measurement": "CHOLESTEROL", "setting": "120 h, time 5 day", "result": 72.67, "unit": "mg/dL"}, {"measurement": "CREATINE PHOSPHOKINASE", "setting": "120 h, time 5 day", "result": 317, "unit": "u/L"}, {"measurement": "CREATININE", "setting": "120 h, time 5 day", "result": 0.25, "unit": "mg/dL"}, {"measurement": "GLUCOSE", "setting": "120 h, time 5 day", "result": 162.33, "unit": "mg/dL"}, {"measurement": "LACTATE DEHYDROGENASE", "setting": "120 h, time 5 day", "result": 138, "unit": "u/L"}, {"measurement": "LIPASE", "setting": "120 h, time 5 day", "result": 11, "unit": "u/L"}, {"measurement": "PHOSPHORUS", "setting": "120 h, time 5 day", "result": 11.9, "unit": "mg/dL"}, {"measurement": "POTASSIUM", "setting": "120 h, time 5 day", "result": 6.72, "unit": "MEQ/L"}, {"measurement": "SODIUM", "setting": "120 h, time 5 day", "result": 143.47, "unit": "MEQ/L"}, {"measurement": "TOTAL BILIRUBIN", "setting": "120 h, time 5 day", "result": 0.2, "unit": "mg/dL"}, {"measurement": "TOTAL PROTEIN", "setting": "120 h, time 5 day", "result": 5.87, "unit": "G/DL"}, {"measurement": "URIC ACID", "setting": "120 h, time 5 day", "result": 1.9, "unit": "mg/dL"}]}
